Laboratory results as given in patent publication US20110130346A1, “PEPTIDE CONJUGATES FOR DELVERY OF BIOLOGICALLY ACTIVE COMPOUNDS” (ISIS INNOVATION LIMITED, priority 2008, published 2011).

Tests used:
[1] = test system: exon and intron 23 of the dystrophin gene; experiment: Example 2: systemic intravenous injection, Western blot of dystrophin; format: in vivo, mdx mice; details: intravenous 25, 50 and 100 mg/kg
Source text: To develop AO splice correction therapy for DMD it is essential to establish effective systemic dystrophin correction since DMD is a systemic disease affecting all skeletal muscles, including the diaphragm, and cardiac muscle. Other AO chemistries, including 2′OMePS and PMO chemistries, have been reported to yield variable dystrophin splice correction following intravenous systemic delivery in mdx mice, with high systemic doses being required to detect appreciable efficacy. Here we wished to evaluate the potential of neutral PNA AOs for systemic splice correction in body-wide muscles, and initially evaluated a dose-response using three intravenous single PNA doses of 25, 50 and 100 mg/kg administered to 6 week old mdx mice via tail vein injections. […]
The collected sections were placed in a 1.5 ml polypropylene eppendorf tube (Anachem, UK) on dry ice. […] The supernatant was collected and the protein concentration was quantified by Bradford assay (Sigma, UK). […] The bound primary antibody was detected by horseradish peroxidise-conjugated rabbit anti-mouse IgGs and the ECL Western Blotting Analysis system (Amersham Pharmacia Biosciences, UK). The intensity of the bands obtained from treated mdx muscles was measured by Image J software; the quantification is based on band intensity and area, and is compared with that from normal muscles of C57BL6 mice.

[2] = test system: exon and intron 23 of the dystrophin gene; experiment: Example 2: intramuscular injection, Western blot of dystrophin; format: in vivo, mdx mice; details: 5 ug intramuscular
Experimental: (§1) For intramuscular studies the TA muscle of each experimental mdx mouse was injected with a […] dose of PNA and PNA-peptide conjugates with saline at a final concentration of 125 μg/ml. For systemic intravenous injections, Various amount of PNA or PNA-peptide conjugates in 80 μl saline buffer were injected into tail vein of mdx mice at the final dose of 25 mg/kg, 50 mg/kg and 100 mg/kg, respectively. The animals were killed at various time points after injection by CO2 inhalation and tissues were removed and snap-frozen in liquid nitrogen-cooled isopentane and stored at −80° C.
The collected sections were placed in a 1.5 ml polypropylene eppendorf tube (Anachem, UK) on dry ice. The tissue sections were lysed with 150 μl protein extraction buffer containing 125 mmol/l Tris-HCl (pH=6.8), 10% sodium dodecyl sulphate, 2 mol/l urea, 20% glycerol, and 5% 2-mercaptoethanol. […] The supernatant was collected and the protein concentration was quantified by Bradford assay (Sigma, UK). […] The bound primary antibody was detected by horseradish peroxidise-conjugated rabbit anti-mouse IgGs and the ECL Western Blotting Analysis system (Amersham Pharmacia Biosciences, UK). The intensity of the bands obtained from treated mdx muscles was measured by Image J software; the quantification is based on band intensity and area, and is compared with that from normal muscles of C57BL6 mice.

[3] = test system: exon and intron 23 of the dystrophin gene; experiment: Example 2: intramuscular injection into TA muscle, dystrophin-positive fibres by immunohistochemistry; format: in vivo, mdx mice
Source text: Here we aim to evaluate the potential of PNA AOs as splice correcting therapeutic agents for DMD, by studying their activity under a range of conditions in mdx mice carrying a nonsense mutation in exon 23 of the dystrophin gene. PNAs and PNA-pepide conjugates were studied following intramuscular delivery into adult (6-8 week old) mdx tibialis anterior (TA) muscles or via systemic intravenous tail vein delivery in mdx mice unless otherwise stated.
as §1
Sections of 8 μm were cut from at least two-thirds of the muscle length of TA, quadriceps, gastrocnemius, biceps, abdominal wall and diaphragm muscles and cardiac muscle at 100 μm intervals. The sections were then examined for dystrophin expression with a polyclonal antibody 2166 against the dystrophin carboxyl-terminal region. The maximum number of dystrophin-positive fibres in one section was counted using the Zeiss AxioVision fluorescence microscope. The intervening muscle sections were collected either for RT-PCR analysis and Western blot or as serial sections for immunohistochemistry. Polyclonal antibodies were detected by goat-anti-rabbit IgGs Alexa Fluro 594 (Molecular Probe, UK). […]

H2K mdx cells = experiment: WST-1 cell viability assay in H2K mdx cells; format: cell-based, mouse; details: 2.5 μM to 25 μM, 12 hours
Experimental: The possible toxicity of the PNA-peptide conjugates in H2K mdx cells was examined using a WST-1 assay, which measures the metabolic activity of viable cells. Cells were grown in 96-well microplates overnight and treated with unmodified PNA as a control or PNA-peptide conjugates for 12 hours, and then incubated with WST-1 for approximately 4 hours. During this incubation period, viable cells convert WST-1 to a water-soluble formazan dye which is then quantified using an ELISA plate reader.

5′-ggccaaaccteggcttacct-3′ [PNA]
dystrophin protein (Western blot) [1]: Under detectable level | level of dystrophin protein restored (Western blot) ([2]; 8 week time point): about 20 % of normal levels | dystrophin protein (Western blot) ([2]; 20 weeks post administration): considerably reduced levels | number of dystrophin-positive fibres ([3]; 12-month old mdx mice, 5 ug intramuscular into TA, two weeks): 388±24 | persistence of splice correction effect ([3]; two month old mdx mice, 5 ug intramuscular): greater than 20 weeks | number of dystrophin-positive fibres ([3]; two month old mdx mice, 5 ug intramuscular, 8 week time point (peak)): greater than 650 | Toxicity or inhibition of cell proliferation (WST-1) (H2K mdx cells): not observed
